# According to patent EP0738149B1 (priority 1994, dated 1995):
# Where two headings read alike, the source gives them in different places.
# How the values were obtained:
# in vivo = details: mouse, in vivo, ip, MICE TD50
# Protocol: (§1) Neurotoxicity of the claimed agents was also assessed in mice (i.p. administration) by the rotorod ataxia test and/or in rats (p.o. administration) by positional sense test and gait stance test. […] The term quantitating the neurotoxicity is the medial neurological toxic dose (TD50), was determined in the above tests.
# mice [1] = assay: in vivo; details: mouse, in vivo, ip
# Protocol: as §1
# [2] = Neurotoxicity in rats (positional sense test and gait stance test), p.o.; details: rat, in vivo, po
# Protocol: as §1
# rats [3] = assay: as above; details: rats, p.o.; Table 16
# Protocol: as §1
# [4] = test system: mechanically dissociated neonatal rat cerebellum; assay: Reversal of NMDA induced cell death in cultures of neonatal rat cerebellum; format: cell-based; details: for SURVIVING CELL IN CULTURE: relative to control (100%); for PERCENT PROTECTION: Cell Survival minus the NMDA effect; for EFFECTIVE PROTECTION: X x 100/70
# Method in brief: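 Cerebellar cells from 6–7-day rat pups on poly-L-lysine at 200/mm^2, grown 3 days (37°C, 5% CO2), then compound with NMDA challenge (1mM, 3 hours); spermine (0.01 micromoles) plus NMDA as positive control, duplicates. Survival by phase contrast and trypan blue after 24 hours; effective protection = percent protection ×100/70.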
# rats [5] = details: Rattus norvegicus, po, read-out: RATS scMet ED50
# Male mongolian gerbils = assay: Global brain ischemia in gerbils (CA1 pyramidal neurons); format: in vivo; details: 3 injections, fraction of hippocampi protected from ischemia, 14 days post-ischemia
# Protocol: Each artery was clamped for 5 minutes with aneurysm clips to produce global brain ischemia. The anesthesia was discontinued upon clamping. After 5 minutes the clamps were removed and the wound closed with skin clips.
# For treatment, the test compound or vehicle were injected intra-peritoneally (ip) in a volume of 50 microliters of solvent per 10g body weight. The first injection was given two minutes after clamp removal, and thereafter daily for the next 2 post-operative days (total of 3 injections).
# Seven groups each of 4-8 animals were compared: • I. Control; (sham- or unoperated and saline treated), • II. Vehicle treated, unoperated (when solvent is other than saline), • III. Ischemia - untreated or saline treated), • IV. Ischemia - vehicle treated (when solvent is other than saline), • V. Ischemia - Test compound treated, one sub-group per concentration tested, • VI. Ischemia and pentobarbital (40 mg/kg) as positive control).
# Analysis of neuronal damage was performed 14 days post-ischemia by counting pyramidal neurons throughout the CA1 layer of the anterior hippocampus in […] thick (paraffin) coronal brain sections stained with hematoxylin and erosin.
# Percent Protection values represent the fraction of hippocampi protected from ischemia in a group of animals treated with the stated dose of compound.
# [6] = test system: mechanically dissociated neonatal rat cerebellum; assay: Enhancement of cell survival in cultures of neonatal rat cerebellum (no NMDA); format: cell-based; details: 0.005 µM; 24 hours after addition; percentage of the number of control cells on the fourth day
# Protocol: The cerebellum was aseptically dissociated from 6 or 7-day old rat pups and placed in a 15ml sterile plastic conical tube containing 3ml of Dulbecco's modified Eagle's medium (DMEM) with a high glucose concentration ([…]) and 2mM (v/v) L-glutamine and an antibiotic antimitotic mixture. The cerebella were then dissociated after 20-25 passages through a sterile 13 gauge, 10cm long stainless steel needle attached to a 5ml syringe with an inserted 45 micrometer pore nylon sieve. The dissociated cells were centrifuged at 200g for 5 minutes. […] Cell viability was determined by the tryptan blue exclusion test.
# Cells were plated at a density of 200/mm^2 on poly-L-lysine coated surfaces. Poly-L-lysine coated glass coverslips were prepared at least one hour in advance of plating by immersing sterile coverslips in sterile distilled water solution containing 15 microgram/ml poly-L-lysine, and washing in sterile water just prior to use. […] After three days in culture, the media was replaced with media containing the desired test compound. Each test compound was tested in duplicate. Toxic-dose response was determined for each compound.
# Cell cultures were grown as described above but in the absence of NMDA and after 3 days a dose of test compound was added. Cell survival was monitored as described above.
# rats [7] = assay: Maximal electroshock (MES) model in rats, p.o.;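 note: rat MES model gauging antiepileptic efficacy versus generalized and partial seizures after oral dosing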; format: in vivo; details: Rattus norvegicus, po; rats, p.o.; Table 15; read-out: RATS MES 50
# mice [8] = assay: Maximal electroshock (MES) model in mice, i.p.;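 note: Electroshock-induced convulsion model serving to demonstrate antiepileptic efficacy against generalized and partial seizures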; format: in vivo; details: Mus musculus, ip, Table 15
# rats [9] = assay: Electrically kindled rat model of epilepsy, p.o.; format: in vivo; details: po, read-out: ED50 (prevented seizures)
# From the text: The rat electrical kindling model of epilepsy has been known to show efficacy of antiepileptic agents against complex partial seizures that evolve into generalized motor seizures. In these tests, rats were electrically stimulated via corneal electrodes twice daily for approximately 5 days and then once daily for an additional 10 days. Once the seizure criteria, as described by R.J. Racine, et al., Electroenceph. Clin. Neurophysiol. 32: 281-294 (1972), were met, the test substance was administered p.o. to rats, and the rat electrically stimulated, and observed for the presence or absence of a seizure.
# mice [10] = details: Mus musculus, ip, read-out: MICE scMet ED50, mice, i.p.; Table 16
smiles,measurement,setting,value
"CC(=O)N[C@H]1CCc2ccccc21 [Example 19, (S)-N-Acetyl-1-aminoindan]",TD50,in vivo,61 mg/kg
same,MICE TD50,mice [1],61 mg/kg
same,TD50,[2],> 500 mg/kg
same,RATS TD50,rats [3],>500 mg/kg
same,SURVIVING CELL IN CULTURE,[4]; 0.001 µM + NMDA 1mM for 3 hours,80%
same,PERCENT PROTECTION,[4]; 0.001 µM + NMDA,50%
same,EFFECTIVE PROTECTION,[4]; 0.001 µM + NMDA,71%
same,SURVIVING CELL IN CULTURE,[4]; 0.005 µM + NMDA 1mM for 3 hours,30%
same,PERCENT PROTECTION,[4]; 0.005 µM + NMDA,0%
same,EFFECTIVE PROTECTION,[4]; 0.005 µM + NMDA,0%
same,SURVIVING CELL IN CULTURE,[4]; 0.010 µM + NMDA 1mM for 3 hours,42%
same,PERCENT PROTECTION,[4]; 0.010 µM + NMDA,12%
same,EFFECTIVE PROTECTION,[4]; 0.010 µM + NMDA,17%
same,SURVIVING CELL IN CULTURE,[4]; 1.000 µM + NMDA 1mM for 3 hours,15%
same,PERCENT PROTECTION,[4]; 1.000 µM + NMDA,-15%
same,ED50,rats [5],> 250 mg/kg
same,PERCENT PROTECTION,Male mongolian gerbils; 0.1 mg/kg ip,25.0%
same,PERCENT PROTECTION,Male mongolian gerbils; 1.0 mg/kg ip,0%
same,PERCENT PROTECTION,Male mongolian gerbils; 10.0 mg/kg ip,37.5%
same,% ENHANCED SURVIVAL,[6],120%
same,ED50,rats [7],24 mg/kg
same,ED50,mice [8],40 mg/kg
same,ED50,rats [9],> 50 mg/kg
same,ED50,mice [10],86 mg/kg
